# Results taken from US20250353842A1, “BICYCLIC AMINE CDK12 INHIBITORS” (Incyte Corporation, priority 2022, published 2025).
# Target: CDK12 complexed with Cyclin K (Homo sapiens (Human), UniProt Q9NYV4)
# Experiment: CDK enzymatic assay (HTRF, LANCE Ultra kinase assay)
# Type: biochemical
# Details: 60 minutes pre-incubation, 1 mM ATP
# Protocol: The following activity of the CDK enzymes in complex with their respective cyclins we assayed: CDK1 complexed with Cyclin B1; CDK2 complexed with Cyclin E1; CDK4 complexed with Cyclin D1; CDK6 complexed with Cyclin D1; CDK6 complexed with Cyclin D3; CDK9 complexed with Cyclin T1; CDK7 complexed with Cyclin H/MAT1; CDK2 complexed with Cyclin A2; CDK5 complexed with p35; CDK12 complexed with Cyclin K; CDK13 complexed with Cyclin K. These in vitro enzyme activity are assayed using homogeneous time-resolved energy transfer (HTRF), which measures phosphorylation of a peptide substrate. The LANCE® Ultra kinase assay (PerkinElmer) uses a ULight™-labeled EIF4E-binding protein 1 (THR37/46) peptide (DYSTTPGGTLFSTTPGTRI) (SEQ ID NO: 1) substrate and a Europium-labeled anti-phospho-4E-BP1 antibody (CDK2, CDK1, CDK4, CDK6, CDK9, CDK12, CDK13) or ULight™-labeled Myelin Basic Protein peptide (VTPRTPPP) (SEQ ID NO: 2) substrate and a Europium-labeled anti-phospho-MBP antibody (CDK7). Each CDK enzyme activity assays utilized human CDK co-expressed as N-terminal GST-tagged protein with its full length cyclin partner using a baculovirus expression system.
# Enzyme was pre-incubated with compounds for 30 minutes (CDK1,2,4,6,9) or 60 minutes (CDK7, CDK12, CDK13) prior to addition of ATP and Ulight-peptide (1 mM and 50 nM final, respectively), in assay buffer containing 50 mM HEPES pH 7.5, 1 mM EGTA, 10 mM MgCl2, 2 mM DTT, 0.05 mg/mL BSA, and 0.01% Tween 20.
# The reaction was then incubated for 60-90 minutes at room temperature. The reactions were stopped by the addition of EDTA and Europium labeled antibody, for a final concentration of 15 mM and 1.0-1.5 nM, respectively. HTRF signals were read after 15-120 minutes. A ratio of fluorescence transferred to the labeled substrate (665 nm) relative to fluorescence of the Europium donor (620 nm) represents the extent of phosphorylation. Ratios for treated wells were normalized to DMSO only (100% activity) and no enzyme (0% activity) controls. Normalized data was analyzed using a three or four parameter dose response curve to determine IC50 for each compound and are shown in Table A. Control reference inhibitors were included on each plate.
# Chain of CDK12 complexed with Cyclin K (Q9NYV4 whole entry): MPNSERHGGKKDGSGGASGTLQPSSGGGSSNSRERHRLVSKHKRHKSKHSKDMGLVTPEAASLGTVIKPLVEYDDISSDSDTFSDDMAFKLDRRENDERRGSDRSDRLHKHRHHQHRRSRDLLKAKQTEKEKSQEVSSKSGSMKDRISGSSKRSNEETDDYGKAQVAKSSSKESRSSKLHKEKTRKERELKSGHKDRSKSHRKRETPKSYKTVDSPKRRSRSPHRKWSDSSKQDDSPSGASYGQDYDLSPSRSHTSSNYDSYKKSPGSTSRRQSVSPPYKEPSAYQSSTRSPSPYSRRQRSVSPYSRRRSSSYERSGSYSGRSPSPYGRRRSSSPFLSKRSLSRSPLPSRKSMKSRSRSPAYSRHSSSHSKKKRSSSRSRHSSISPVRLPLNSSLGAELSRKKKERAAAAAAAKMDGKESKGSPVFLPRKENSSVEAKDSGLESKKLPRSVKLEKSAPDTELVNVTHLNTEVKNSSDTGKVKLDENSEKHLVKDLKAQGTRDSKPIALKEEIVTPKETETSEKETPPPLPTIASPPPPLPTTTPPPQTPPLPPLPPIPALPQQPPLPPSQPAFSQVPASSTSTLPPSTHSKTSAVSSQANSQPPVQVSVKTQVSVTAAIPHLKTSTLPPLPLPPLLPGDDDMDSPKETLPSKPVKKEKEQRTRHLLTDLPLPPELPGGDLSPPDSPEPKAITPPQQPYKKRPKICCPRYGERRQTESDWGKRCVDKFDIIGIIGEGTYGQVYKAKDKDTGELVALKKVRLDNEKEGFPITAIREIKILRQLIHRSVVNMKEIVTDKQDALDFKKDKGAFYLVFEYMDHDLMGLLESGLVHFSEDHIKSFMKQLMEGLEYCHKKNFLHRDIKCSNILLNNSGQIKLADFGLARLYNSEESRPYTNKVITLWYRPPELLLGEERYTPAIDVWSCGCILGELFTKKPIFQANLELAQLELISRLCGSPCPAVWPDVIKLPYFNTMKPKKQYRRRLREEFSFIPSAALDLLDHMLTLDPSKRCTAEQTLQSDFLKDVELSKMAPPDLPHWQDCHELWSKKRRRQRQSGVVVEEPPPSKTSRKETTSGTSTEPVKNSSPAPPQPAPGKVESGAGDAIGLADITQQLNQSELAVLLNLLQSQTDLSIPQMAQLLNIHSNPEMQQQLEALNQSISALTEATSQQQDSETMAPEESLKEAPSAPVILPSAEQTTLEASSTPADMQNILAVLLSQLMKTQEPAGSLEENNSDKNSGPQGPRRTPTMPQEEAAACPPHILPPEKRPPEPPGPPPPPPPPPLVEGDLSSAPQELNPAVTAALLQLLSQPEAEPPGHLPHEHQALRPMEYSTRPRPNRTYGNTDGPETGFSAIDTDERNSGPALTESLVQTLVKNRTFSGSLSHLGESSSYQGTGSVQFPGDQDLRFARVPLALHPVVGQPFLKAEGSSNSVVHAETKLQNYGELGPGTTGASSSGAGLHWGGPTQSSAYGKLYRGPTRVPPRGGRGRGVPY
# Chain of CDK12 complexed with Cyclin K (O75909 whole entry partner): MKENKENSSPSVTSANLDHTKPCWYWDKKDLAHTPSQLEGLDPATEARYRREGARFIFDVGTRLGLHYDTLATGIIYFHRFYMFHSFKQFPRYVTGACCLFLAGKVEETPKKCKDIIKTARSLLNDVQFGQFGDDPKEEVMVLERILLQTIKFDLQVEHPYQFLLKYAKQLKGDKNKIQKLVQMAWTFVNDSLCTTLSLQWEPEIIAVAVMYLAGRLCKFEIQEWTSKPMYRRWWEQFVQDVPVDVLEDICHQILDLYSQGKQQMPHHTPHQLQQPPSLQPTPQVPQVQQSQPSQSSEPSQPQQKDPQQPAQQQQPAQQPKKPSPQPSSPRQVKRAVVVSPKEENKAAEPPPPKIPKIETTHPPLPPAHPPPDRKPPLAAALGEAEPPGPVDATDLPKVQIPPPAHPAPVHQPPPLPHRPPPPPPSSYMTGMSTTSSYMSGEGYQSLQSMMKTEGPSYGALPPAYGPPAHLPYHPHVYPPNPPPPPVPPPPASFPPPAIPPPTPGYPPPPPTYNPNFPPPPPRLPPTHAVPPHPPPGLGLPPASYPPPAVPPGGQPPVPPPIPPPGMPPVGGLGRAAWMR
row,SMILES,IC50
1,"CCn1cc(-c2nc(N[C@@H]3CCC[C@H](n4cnc5cccnc54)C3)ncc2C#N)cn1 [Example 24, 2-(((1R,3S)-3-(3H-Imidazo[4,5-b]pyridin-3-yl)cyclohexyl)amino)-4-(1-ethyl-1H-pyrazol-4-yl)pyrimidine-5-carbonitrile]",< 50 nM
2,"N#Cc1cnc(N[C@@H]2CCC[C@H](n3cnc4cncc(C#N)c43)C2)nc1-c1cnn(CCO)c1 [Example 32, 1-((1S,3R)-3-((5-Cyano-4-(1-(2-hydroxyethyl)-1H-pyrazol-4-yl)pyrimidin-2-yl)amino)cyclohexyl)-1H-imidazo[4,5-c]pyridine-7-carbonitrile]",< 50 nM
3,"N#Cc1cnc2c(c1)ncn2[C@H]1CCC[C@@H](Nc2ncc(C#N)c(-c3cnn(CC(F)F)c3)n2)C1 [9/9A, 3-((1S,3R)-3-((5-Cyano-4-(1-(2,2-difluoroethyl)-1H-pyrazol-4-yl)pyrimidin-2-yl)amino)cyclohexyl)-3H-imidazo[4,5-b]pyridine-6-carbonitrile]",< 50 nM
4,"N#Cc1cnc(N[C@@H]2CCC[C@H](n3cnc4cccnc43)C2)nc1-c1cnn(CC(F)F)c1 [Example 11, 2-(((1R,3S)-3-(3H-Imidazo[4,5-b]pyridin-3-yl)cyclohexyl)amino)-4-(1-(2,2-difluoroethyl)-1H-pyrazol-4-yl)pyrimidine-5-carbonitrile]",< 50 nM
5,"N#Cc1cnc(N[C@@H]2CCC[C@H](n3cnc4cc(F)cc(Cl)c43)C2)nc1-c1cnn(CC(F)F)c1 [Example 36, 2-(((1R,3S)-3-(7-Chloro-5-fluoro-1H-benzo[d]imidazol-1-yl)cyclohexyl)amino)-4-(1-(2,2-difluoroethyl)-1H-pyrazol-4-yl)pyrimidine-5-carbonitrile]",< 50 nM
6,"N#Cc1cnc2c(c1)ncn2[C@H]1CCC[C@@H](Nc2ncc(C(F)(F)F)c(-c3cnn(CC(F)F)c3)n2)C1 [Example 1, 3-((1S,3R)-3-((4-(1-(2,2-Difluoroethyl)-1H-pyrazol-4-yl)-5-(trifluoromethyl)pyrimidin-2-yl)amino)cyclohexyl)-3H-imidazo[4,5-b]pyridine-6-carbonitrile]",< 50 nM
7,"FC(F)Cn1cc(-c2nc(N[C@@H]3CCC[C@H](n4cnc5cnccc54)C3)ncc2C(F)(F)F)cn1 [Example 7, N-((1R,3S)-3-(1H-Imidazo[4,5-c]pyridin-1-yl)cyclohexyl)-4-(1-(2,2-difluoroethyl)-1H-pyrazol-4-yl)-5-(trifluoromethyl)pyrimidin-2-amine]",< 50 nM
8,"N#Cc1cnc2c(c1)ncn2[C@H]1CCC[C@@H](Nc2ncc(Cl)c(-c3cnn(CC(F)F)c3)n2)C1 [Example 14, 3-((1S,3R)-3-((5-Chloro-4-(1-(2,2-difluoroethyl)-1H-pyrazol-4-yl)pyrimidin-2-yl)amino)cyclohexyl)-3H-imidazo[4,5-b]pyridine-6-carbonitrile]",< 50 nM
9,"FC(F)Cn1cc(-c2nc(N[C@@H]3CCC[C@H](n4cnc5cccnc54)C3)ncc2C(F)(F)F)cn1 [Example 12, N-((1R,3S)-3-(3H-Imidazo[4,5-b]pyridin-3-yl)cyclohexyl)-4-(1-(2,2-difluoroethyl)-1H-pyrazol-4-yl)-5-(trifluoromethyl)pyrimidin-2-amine]",< 50 nM
10,"N#Cc1ccc2c(ccn2[C@H]2CCC[C@@H](Nc3ncc(C(F)(F)F)c(-c4cnn(CC(F)F)c4)n3)C2)c1 [Example 16, 1-((1S,3R)-3-((4-(1-(2,2-Difluoroethyl)-1H-pyrazol-4-yl)-5-(trifluoromethyl)pyrimidin-2-yl)amino)cyclohexyl)-1H-indole-5-carbonitrile]",50 to 500 nM

# Next, values leading:
row,IC50,SMILES
1,< 50 nM,"CN(C)c1cnc2c(c1)ncn2[C@H]1CCC[C@@H](Nc2ncc(C(F)(F)F)c(-c3cnn(CC(F)F)c3)n2)C1 [Example 84, 3-((1S,3R)-3-((4-(1-(2,2-Difluoroethyl)-1H-pyrazol-4-yl)-5-(trifluoromethyl)pyrimidin-2-yl)amino)cyclohexyl)-N,N-dimethyl-3H-imidazo[4,5-b]pyridin-6-amine]"
2,< 50 nM,"FC(F)Cn1cc(-c2nc(N[C@@H]3CCC[C@H](n4cnc5cc(C6CC6)cnc54)C3)ncc2C(F)(F)F)cn1 [Example 79, N-((1R,3S)-3-(6-Cyclopropyl-3H-imidazo[4,5-b]pyridin-3-yl)cyclohexyl)-4-(1-(2,2-difluoroethyl)-1H-pyrazol-4-yl)-5-(trifluoromethyl)pyrimidin-2-amine]"
3,< 50 nM,"N#Cc1cnc2c(c1)ncn2[C@H]1CCC[C@@H](Nc2ncc(C#N)c(-c3cnn(CC4CC4)c3)n2)C1 [Example 69, 3-((1S,3R)-3-((5-Cyano-4-(1-(cyclopropylmethyl)-1H-pyrazol-4-yl)pyrimidin-2-yl)amino)cyclohexyl)-3H-imidazo[4,5-b]pyridine-6-carbonitrile]"
4,< 50 nM,"N#Cc1cnc2c(c1)ncn2[C@H]1CCC[C@@H](Nc2ncc(C#N)c(-c3cnn(C4CNC4)c3)n2)C1 [Example 59, 3-((1S,3R)-3-((4-(1-(Azetidin-3-yl)-1H-pyrazol-4-yl)-5-cyanopyrimidin-2-yl)amino)cyclohexyl)-3H-imidazo[4,5-b]pyridine-6-carbonitrile]"
5,< 50 nM,"Cc1ncc(C#N)c2c1ncn2[C@H]1CCC[C@@H](Nc2ncc(C#N)c(-c3cnn(CC(F)F)c3)n2)C1 [Example 48, 1-((1S,3R)-3-((5-Cyano-4-(1-(2,2-difluoroethyl)-1H-pyrazol-4-yl)pyrimidin-2-yl)amino)cyclohexyl)-4-methyl-1H-imidazo[4,5-c]pyridine-7-carbonitrile]"
6,< 50 nM,"N#Cc1cnc2c(c1)ncn2[C@H]1CCC[C@@H](Nc2ncc(C#N)c(-c3cnn(C4CCC4)c3)n2)C1 [Example 38, 3-((1S,3R)-3-((5-Cyano-4-(1-cyclobutyl-1H-pyrazol-4-yl)pyrimidin-2-yl)amino)cyclohexyl)-3H-imidazo[4,5-b]pyridine-6-carbonitrile]"
7,< 50 nM,"N#Cc1cc(C#N)c2c(c1)ncn2[C@H]1CCC[C@@H](Nc2ncc(C#N)c(-c3cnn(CC(F)F)c3)n2)C1 [Example 50, 1-((1S,3R)-3-((5-Cyano-4-(1-(2,2-difluoroethyl)-1H-pyrazol-4-yl)pyrimidin-2-yl)amino)cyclohexyl)-1H-benzo[d]imidazole-5,7-dicarbonitrile]"
8,< 50 nM,"FC(F)Cn1cc(-c2nc(N[C@@H]3CCC[C@H](n4cnc5cc(-c6cn[nH]c6)cnc54)C3)ncc2C(F)(F)F)cn1 [Example 80, N-((1R,3S)-3-(6-(1H-Pyrazol-4-yl)-3H-imidazo[4,5-b]pyridin-3-yl)cyclohexyl)-4-(1-(2,2-difluoroethyl)-1H-pyrazol-4-yl)-5-(trifluoromethyl)pyrimidin-2-amine]"
9,< 50 nM,"CC(=O)N1CCN(c2cnc3c(c2)ncn3[C@H]2CCC[C@@H](Nc3ncc(C#N)c(-c4cnn(CC(F)F)c4)n3)C2)CC1 [Example 74, 2-(((1R,3S)-3-(6-(4-Acetylpiperazin-1-yl)-3H-imidazo[4,5-b]pyridin-3-yl)cyclohexyl)amino)-4-(1-(2,2-difluoroethyl)-1H-pyrazol-4-yl)pyrimidine-5-carbonitrile]"
10,< 50 nM,"C=C(C)c1cnc2c(c1)ncn2[C@H]1CCC[C@@H](Nc2ncc(C(F)(F)F)c(-c3cnn(CC(F)F)c3)n2)C1 [Example 78, 4-(1-(2,2-Difluoroethyl)-1H-pyrazol-4-yl)-N-((1R,3S)-3-(6-(prop-1-en-2-yl)-3H-imidazo[4,5-b]pyridin-3-yl)cyclohexyl)-5-(trifluoromethyl)pyrimidin-2-amine]"
11,> 500 nM,"Cn1cc(-c2cnc(N[C@@H]3CCC[C@H](n4cnc5cc(C#N)cnc54)C3)nc2-c2cnn(CC(F)F)c2)cn1 [Example 56, 3-((1S,3R)-3-((4-(1-(2,2-Difluoroethyl)-1H-pyrazol-4-yl)-5-(1-methyl-1H-pyrazol-4-yl)pyrimidin-2-yl)amino)cyclohexyl)-3H-imidazo[4,5-b]pyridine-6-caronitrile]"
12,< 50 nM,"FC(F)Cn1cc(-c2nc(N[C@@H]3CCC[C@H](n4cnc5cc(-c6cccnc6)cnc54)C3)ncc2C(F)(F)F)cn1 [Example 82, 4-(1-(2,2-Difluoroethyl)-1H-pyrazol-4-yl)-N-((1R,3S)-3-(6-(pyridin-3-yl)-3H-imidazo[4,5-b]pyridin-3-yl)cyclohexyl)-5-(trifluoromethyl)pyrimidin-2-amine]"
13,< 50 nM,"FC(F)Cn1cc(-c2nc(N[C@@H]3CCC[C@H](n4cnc5cc(N6CCCC6)cnc54)C3)ncc2C(F)(F)F)cn1 [Example 83, 4-(1-(2,2-Difluoroethyl)-1H-pyrazol-4-yl)-N-((1R,3S)-3-(6-(pyrrolidin-1-yl)-3H-imidazo[4,5-b]pyridin-3-yl)cyclohexyl)-5-(trifluoromethyl)pyrimidin-2-amine]"
